The results in this text go back to PubChem BioAssay (NCI).

Holding throughout (experiment): NCI tumour cell line growth inhibition, 48 h
In test [1] the test system is NCI-H23 lung.
For test [2], the system named is BT-549 breast.
Test [3] relates to CAKI-1 renal.
Test [4] relates to A549 NSCLC.
The subject of test [5] is HL-60(TB) leukemia.
The test system of test [6] is ACHN renal.
The subject of test [7] is HOP-92 NSCLC.
Test [8] deals with SF-539 CNS.
Test [9] has as its system NCI-H460 lung.
The subject of test [10] is COLO 205 colon.

SMILES strings stand for the structures.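 Test compounds were applied to cells in 96-well plates for 48 hours at 5 doses. Abbreviation: GI50, concentration required for 50% inhibition of growth. The concentration for full growth arrest is given as TGI.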

As to `C[C@H](CCOc1cccc(CC(=O)O)c1)N(Cc1cccc(C(F)(F)F)c1Cl)CC(c1ccccc1)c1ccccc1`, the GI50 in test [1] is 4.5 µM; in test [2], 5.39 µM; in [3], 5.79 µM; in test [4] it was 3.94 µM; in test [5] it was 5.58 µM; in test [6], 5.11 µM. Further, the GI50 in test [7] is 3.21 µM; in test [8], 6.14 µM; in [9] it was 3.9 µM. In addition, the TGI is 19.2 µM in [1]; 20 µM in [2]; 18.2 µM in test [3]; 18.9 µM in [4]; 24.6 µM in test [5]; 17 µM in [6]. For the same compound, the TGI in test [7] turned out to be 16.5 µM; in test [8], 20.4 µM; in [9], 13.6 µM.

With `CCOC(=O)c1c(C)c2c(n1Cc1ccccc1)CSCC2=O`, the GI50 in test [1] was 17.2 µM; in test [2], 21 µM; in test [3] it was 11 µM; in test [4], 30.6 µM; in [5] it was 18.8 µM; in test [6] it was 18.8 µM. Further, the GI50 is 1.21 µM in [7], 20.3 µM in [10], 17.5 µM in test [8] and 20.4 µM in test [9]. For the same compound, the TGI in test [1] was 63.8 µM; in [2], 77.6 µM; in test [3], 52.2 µM; in test [4], greater than 100 µM; in [5], 54.1 µM; in test [6], greater than 100 µM. For the same compound, the TGI in test [7] is 19.8 µM; in test [10], 48.8 µM; in test [8], 50.9 µM; in test [9], 55.1 µM.

In the case of `CCSc1nc(N=Cc2ccccc2O)c2cn[nH]c2n1`, the GI50 was 15.2 µM in test [1]; 40.6 µM in [2]; 19.3 µM in test [3]; 46.2 µM in test [4]; 29.8 µM in test [6]; 30.7 µM in test [10]. The GI50 in [8] was 34.2 µM; in test [9] it was 30.7 µM. For the same compound, the TGI in [1] was 34.9 µM; in test [2] it was greater than 100 µM; in test [3] it was 82.4 µM; in test [4], greater than 100 µM; in test [6], greater than 100 µM; in [10], greater than 100 µM. In addition, the TGI in [8] and in test [9] was greater than 100 µM each time.

`O=c1[nH]c(O)c(C=Nc2ccc(-c3nc4ccccc4o3)cc2)c(=O)[nH]1`: the GI50 in test [2] was greater than 100 µM; in test [3], 33.1 µM; in [4] it was 74.9 µM; in [5], 81.9 µM; in [6] it was greater than 100 µM; in test [7], greater than 100 µM. Moreover, the GI50 in test [10] was 23.2 µM; in test [8], 27.4 µM; in test [9], greater than 100 µM. In addition, the TGI in test [2], in test [3], in test [4], in test [5], in test [6] and in [7] was greater than 100 µM each time. The TGI in test [10] is greater than 100 µM; in test [8], 62.7 µM; in [9], greater than 100 µM.

In the case of `C=C(CN(C)Cc1ccccc1)c1ccc(NC(=O)c2ccc(C(=C)CN(C)Cc3ccccc3)cc2)cc1`, the GI50 is 49.4 µM in [1]; greater than 100 µM in test [2]; 53 µM in [3]; 77.8 µM in test [4]; 66.6 µM in test [6]; greater than 100 µM in test [10]. In addition, the GI50 is 68.8 µM in test [8] and 97.3 µM in test [9]. The TGI in [1], in test [2], in test [3], in [4], in test [6] and in test [10] was greater than 100 µM in each case. Moreover, the TGI in [8] and in test [9] was greater than 100 µM throughout.

Take `CNc1nc(N)nc(Nc2ccc(I)cc2)c1N=O`: the TGI in [1], in test [2], in [4], in test [5], in test [6] and in test [10] was greater than 100 µM each time. Also, the TGI in test [8] and in test [9] was greater than 100 µM each time.

`N#CC(I)CS(=O)(=O)c1ccccc1` (stereo not given): the GI50 in [1] is 16.7 µM; in test [2] it was 18.8 µM; in test [3] it was 1.61 µM; in test [4] it was 22.7 µM; in [6] it was 1.87 µM; in test [7] it was 13.2 µM. The GI50 in [10] was 2.03 µM; in test [8], 18.2 µM; in [9], 21.6 µM. The TGI in test [1] was 31.7 µM; in test [2], 32.9 µM; in [3], 3.32 µM; in test [4], 47.6 µM; in test [6] it was 3.35 µM; in [7], 26.9 µM. The values for the TGI in [10], in test [8] and in [9] were 3.86 µM, 32.5 µM and 42.4 µM, respectively.

For `COc1ccc(Cl)cc1NC(=O)c1ccc(NC2=C(Cl)C(=O)N(Cc3ccccc3)C2=O)cc1`, the GI50 was 55.8 µM in test [1]; 28.7 µM in test [2]; greater than 100 µM in test [3]; greater than 100 µM in test [4]; 9.51 µM in test [5]; 94.2 µM in [6]. Besides, the GI50 was greater than 100 µM in test [10], greater than 100 µM in test [8] and 9.41 µM in test [9]. Also, the TGI is greater than 100 µM in test [1]; greater than 100 µM in test [2]; greater than 100 µM in test [3]; greater than 100 µM in test [4]; 55.3 µM in test [5]; greater than 100 µM in test [6]. Besides, the TGI in [10], in test [8] and in test [9] was greater than 100 µM each time.

Take `CNCCCNc1ccnc2cc(Cl)ccc12`: the GI50 in test [1] was 30.8 µM; in test [2], 28.3 µM; in [3], 17.3 µM; in test [5], 22.1 µM; in [6], 19 µM; in [7], 9.51 µM. Also, the results for the GI50 in test [10], in [8] and in test [9] were 12.6 µM, 17 µM and 17.9 µM, respectively. The TGI was greater than 100 µM in [1]; greater than 100 µM in test [2]; 48.6 µM in test [3]; 65 µM in test [5]; 61.3 µM in [6]; 39.1 µM in test [7]. The figures for the TGI in [10], in [8] and in test [9] were 27.4 µM, 33.1 µM and 37.8 µM, respectively.

As for `CN(Cc1cnc2nc(N)nc(N)c2n1)c1ccc(C(=O)N[C@@H](CCS(=O)(=O)O)C(=O)O)cc1`, the TGI in test [1], in test [2], in test [3], in test [4], in [6] and in [7] was greater than 100 µM throughout. The TGI in test [10], in test [8] and in [9] was greater than 100 µM throughout.

For the compound `Cc1nc2sccn2c1-c1nc2sccn2c1/C=C1/C(=O)Nc2ccccc21`, the GI50 is 9.44 µM in test [1]; 1.85 µM in [2]; 5.29 µM in [3]; 3.95 µM in test [4]; 7.72 µM in test [6]; 1.4 µM in test [7]. Further, the GI50 in test [10] is 2.63 µM; in test [8], 3.72 µM; in test [9], 3.09 µM. In addition, the TGI in [1] is greater than 100 µM; in [2] it was 7.27 µM; in test [3], 69.4 µM; in test [4] it was greater than 100 µM; in test [6] it was greater than 100 µM; in test [7], 10.2 µM. For the same compound, the TGI was 10.5 µM in test [10], 15.6 µM in [8] and 13.5 µM in test [9].

For `Cc1nc2c(Br)cc(Br)cc2c(=O)n1-c1nnc(-c2cccc(Cl)c2Cl)c(N)n1`, the GI50 in [1] is 23.4 µM; in test [2], 29.3 µM; in test [3], 28.5 µM; in [4], 25.6 µM; in test [6] it was 19.5 µM; in [7] it was 42.4 µM. Moreover, the figures for the GI50 in test [10], in [8] and in test [9] were 32.9 µM, 21.6 µM and 20.3 µM, respectively. Besides, the TGI in test [1] was 65.5 µM; in [2] it was greater than 100 µM; in [3] it was 80.6 µM; in test [4], 85.1 µM; in test [6], 56.1 µM; in test [7] it was greater than 100 µM. Also, the figures for the TGI in test [10], in test [8] and in [9] were greater than 100 µM, 60 µM and greater than 100 µM, respectively.

With `COc1nc(=O)n(C2C=CC(=O)O2)cc1F` (stereo not given), the GI50 in [1] is 8.06 µM; in [2], 8.29 µM; in [3], 2.67 µM; in [4] it was 25.9 µM; in test [6], 2.11 µM; in test [7] it was 1.85 µM. In addition, the GI50 in test [10] is 1.71 µM; in test [8], 2.22 µM; in test [9] it was 12.5 µM. Moreover, the TGI in [1] amounted to 25.5 µM; in [2] it was 24.1 µM; in test [3], 8.7 µM; in [4] it was 87.3 µM; in test [6], 5.45 µM; in test [7] it was 11.7 µM. Besides, the TGI in [10] came to 3.62 µM; in test [8] it was 5.77 µM; in [9], 28.7 µM.

`CCOC(=O)Nc1c(C)nc2ccccn12`: the GI50 in test [1], in test [2], in test [3], in test [4], in test [6] and in [7] was greater than 100 µM throughout. Besides, the GI50 in test [10], in test [8] and in test [9] was greater than 100 µM each time. For the same compound, the TGI in test [1], in test [2], in test [3], in [4], in test [6] and in test [7] was greater than 100 µM each time. The TGI in test [10], in [8] and in [9] was greater than 100 µM throughout.

Turning to `CCN(CCNS(C)(=O)=O)c1ccc(N)c(C)c1`, the GI50 is 10.1 µM in test [2]; 2.54 µM in [3]; 25 µM in test [4]; 7.01 µM in test [5]; 2.09 µM in [6]; 4.13 µM in [7]. Moreover, the figures for the GI50 in [10], in [8] and in [9] were 13.4 µM, 9.08 µM and 23.2 µM, respectively. Also, the TGI in test [2] worked out at 22.2 µM; in test [3], 6.78 µM; in [4], 51 µM; in [5], 25.7 µM; in test [6] it was 4.9 µM; in test [7], 16.3 µM. The TGI in test [10] stood at 28.9 µM; in test [8], 21.6 µM; in [9], 53.7 µM.

On to `COC(=O)c1c2c(c(C)[n+]([O-])c1C)C(=O)C(NCc1ccc(Br)cc1)=CC2=O`, for which the GI50 is 1.57 µM in test [1]; 1.73 µM in test [2]; 2.31 µM in test [5]; 3.07 µM in test [7]; 2.13 µM in [8]; 1.86 µM in [9]. For the same compound, the TGI in test [1] was 4.68 µM; in test [2] it was 3.52 µM; in [5], 5.37 µM; in test [7], 7.15 µM; in [8] it was 4.75 µM; in test [9], greater than 100 µM.

With `C=C(C)C(C1C=C(CCC(C=O)=C(C)C)C(=O)O1)C1(OC)C=C(C)C(=O)O1` (stereo not given), the GI50 in [1] was 91.3 µM; in test [3] it was greater than 100 µM; in test [4] it was greater than 100 µM; in [5] it was greater than 100 µM; in [6] it was greater than 100 µM; in [7], greater than 100 µM. For the same compound, the values for the GI50 in test [10], in test [8] and in [9] were 63.6 µM, greater than 100 µM and 12.5 µM, respectively. The TGI in test [1], in [3], in test [4], in test [5], in [6] and in test [7] was greater than 100 µM each time. Moreover, the values for the TGI in [10], in test [8] and in test [9] were greater than 100 µM, greater than 100 µM and 28.8 µM, respectively.

Consider `O=[N+]([O-])c1cccnc1N=Nc1c(O)[nH]c2ccccc12`, for which the TGI in test [2] is 25.4 µM; in test [4], 47.7 µM; in test [6] it was 36 µM; in test [7], greater than 100 µM; in test [8] it was 12.7 µM; in test [9], 35.9 µM.
